According to US8288442B2, “Use of derivatives of valproic acid amides and 2-valproenic acid amides for the treatment or prevention of pain and/or headache disorders” (Yissum Research Development Company of The Hebrew …, priority 2000, dated 2012):

Experiments:
[1] = test system: rat constriction injury model; assay: rat chronic constriction injury model of neuropathic pain (cold allodynia); format: in vivo; conditions: read-out: ED50 for reversal of cold allodynia
Method: The anti-pain effects of Compounds 1 and 2 are evaluated in a model for traumatic nerve injury. The specific model is the rat constriction injury model, a commonly accepted model for the evaluation of the potential of a compound to treat chronic neuropathic pain. The end point is whether a compound can reverse cold allodynia in rats following a neuropathic injury. MC may be used as the control.

Chung model = Chung model of neuropathic pain (L5/L6 spinal nerve ligation, tactile allodynia, von Frey filaments); format: in vivo, rat; conditions: 300 mg/kg per os, male Sabra rats
Source text: The potential of Compound 1 to serve as an anti-pain agent was studied in the Chung model (Kim, S. H. and Chung, J. M.). This model is known as a reliable model, predictive for human pain. (Kim, S. H. and Chung, J. M.). In this model, spinal nerves L5 and L6 of the rat are tightly ligated and cut in order to induce neuropathic pain. Male Sabra rats weighing 250-275 g were used throughout the study. Under xylazine-ketamine anesthesia, both the L5 and L6 spinal nerves of one side of the rat were tightly ligated and cut. Pain behavior was measured following operation in all groups using withdrawal latencies of the hind paw to mechanical stimulation with von Frey filaments (tactile allodynia). The mechanical sensitivity of the foot was quantified by the occurrence of foot withdrawal in response to normally innocuous mechanical stimuli. Eight different von Frey filaments ranging from 0.6 to 26 g were used.
The efficacy (antiallodynic effect) of the compound was evaluated (300 mg/kg, per os (oral)) in eight rats at days 7 and 14 postoperation in a double-blind randomized crossover manner. The testing included estimation of time of peak effect following drug administration and measurement of the ability of the compound to decrease tactile allodynia.

[2] = test system: plasma protein extravasation; assay: migraine model of Moskowitz (plasma protein extravasation into the dura mater); format: in vivo; conditions: control = 100
Source text: Evaluation of the anti-headache effects of Compounds 1 and 2 are followed in the migraine model of Moskowitz (Suzzi, M. C. and Moskowitz, M. A.). In this model, neurogenic inflammation results in the leakage of plasma proteins into the dura matter (plasma protein extravasation), which can be quantified by measuring the leakage of radioactive albumin (Suzzi, M. C. and Moskowitz, M. A.).

For `CCCC(CCC)C(=O)NCC(N)=O` [Compound 1, N-(2-n-propylpentanoyl)glycinamide], the ED50 [1] was less than 500 mg/kg, the “Time of peak effect” value (Chung model; antiallodynic effect) was 60 min and the “Effect on tactile allodynia in comparison to vehicle” value (Chung model; days 7 and 14 postoperation, significant at 60 min (p=0.0207) and 120 min (p=0.0102)) was “reversed tactile allodynia”. For the same compound, the “Percent Extravasation Compared to Control” value [2] was less than 100.
With `CC/C=C(\CCC)C(=O)NCC(N)=O` [Compound 2, N-(2-n-propylpent-2-enoyl)glycinamide] the ED50 [1] was less than 500 mg/kg and the “Percent Extravasation Compared to Control” value [2] was less than 100.
